Results reported in patent US20260138958A1, “SUBSTITUTED N-PHENYLURACILS AND SALTS THEREOF, AND USE THEREOF AS HERBICIDAL ACTIVE SUBSTANCES” (Bayer Aktiengesellschaft, priority 2022, published 2026).

Experiments:
Assay type in all cases: in vivo
Oryza sativa (ORYSA) = experiment: Post-emergence crop plant compatibility, greenhouse pot test; conditions: crop plant, post-emergence
Procedure, shortened: (§1)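 Crops grown in sandy loam in the greenhouse were sprayed post-emergence at the one-leaf stage, 2–3 weeks after sowing, with WP or EC formulations plus 0.5% additive at 600 l/ha water. Damage was rated visually after about 3 weeks against untreated controls (0% = like control, 100% = dead).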

[1] = system: Triticum aestivum (TRZAS); experiment: as above
Procedure, shortened: as §1

Zea mays (ZEAMX) = experiment: as above; conditions: crop plant, post-emergence, 1.25 g/ha
Procedure, shortened: as §1

[2] = system: Polygonum convolvulus (POLCO); experiment: Post-emergence herbicidal action, greenhouse pot test
Procedure, shortened: (§2)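 Weeds grown in sandy loam in the greenhouse and sprayed post-emergence at the one-leaf stage, 2–3 weeks after sowing. Compound applied as WP or EC in water with 0.5% additive at 600 l/ha. Damage rated visually about 3 weeks later against untreated controls (0% = like control, 100% = dead).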

[3] = system: Abutilon theophrasti (ABUTH); experiment: as above
Procedure, shortened: as §2

[4] = system: Echinochloa crus-galli (ECHCG); experiment: as above
Procedure, shortened: as §2

Veronica persica (VERPE) = experiment: as above
Procedure, shortened: as §2

[5] = system: Tripleurospermum inodorum (MATIN); experiment: as above
Procedure, shortened: as §2

[6] = system: Pharbitis purpurea (PHBPU); experiment: as above
Procedure, shortened: as §2

[7] = system: Amaranthus retroflexus (AMARE); experiment: as above
Procedure, shortened: as §2

Lolium rigidum (LOLRI) = experiment: as above
Procedure, shortened: as §2

[8] = system: Alopecurus myosuroides (ALOMY); experiment: as above
Procedure, shortened: as §2

Viola tricolor (VIOTR) = experiment: as above
Procedure, shortened: as §2

Setaria viridis (SETVI) = experiment: as above
Procedure, shortened: as §2

harmful plants = experiment: Post-emergence herbicidal action, summary statements over several weeds; conditions: 20 g or less per hectare, ALOMY, ECHCG, AVEFA, VERPE
Description: (§3) Seeds of monocotyledonous and dicotyledonous weeds and crop plants were placed in sandy loam in plastic or wood-fibre pots, covered with soil and cultivated in a greenhouse under controlled growth conditions. 2 to 3 weeks after sowing, the test plants were treated at the one-leaf stage. The compounds of the invention, formulated in the form of wettable powders (WP) or as emulsion concentrates (EC), were then sprayed onto the green parts of the plants as aqueous suspension or emulsion with addition of 0.5% additive at a water application rate of 600 l/ha (converted). After the test plants had been kept in the greenhouse under optimum growth conditions for about 3 weeks, the activity of the preparations was rated visually in comparison to untreated controls. For example, 100% activity=the plants have died, 0% activity=like control plants.

Bassia scoparia (KCHSC) = experiment: Post-emergence herbicidal action, greenhouse pot test
Procedure, shortened: as §2

[9] = system: Digitaria sanguinalis (DIGSA); experiment: as above
Procedure, shortened: as §2

crop plants = experiment: Post-emergence crop plant compatibility, summary statements over several crops; conditions: 5 g or less per hectare, ORYSA, ZEAMX, TRZAS
Description: as §3
The observed effects on selected crop plants are reported here in comparison to the untreated controls (values in %).

In the case of `Cn1c(C(F)(F)F)cc(=O)n(-c2cc(Oc3ccccc3OCC(=O)OCC3CC3)c(Cl)cc2F)c1=O` [I.7-1], the “Post-emergence effect at 1.25 g/ha against ORYSA in %” value (Oryza sativa (ORYSA); 1.25 g/ha) is reported as 0%, the “Post-emergence effect at 5 g/ha against ORYSA in %” value (Oryza sativa (ORYSA); 5 g/ha) is reported as 20% and the “Post-emergence effect at 1.25 g/ha against TRZAS in %” value ([1]; crop plant, post-emergence, 1.25 g/ha) is reported as 0%. The “Post-emergence effect at 1.25 g/ha against ZEAMX in %” value (Zea mays (ZEAMX)) was 20%, the “Post-emergence effect at 1.25 g/ha against POLCO in %” value ([2]; 1.25 g/ha) was 80% and the “Post-emergence effect at 5 g/ha against POLCO in %” value ([2]; 5 g/ha) was 100%. The “Post-emergence effect at 20 g/ha against POLCO in %” value ([2]; 20 g/ha) was 100%, the “Post-emergence effect at 1.25 g/ha against ABUTH in %” value [3] was 90% and the “Post-emergence effect at 5 g/ha against ABUTH in %” value ([3]; 5 g/ha) was 100%. For the same compound, the “Post-emergence effect at 20 g/ha against ABUTH in %” value ([3]; 20 g/ha) was 100%, the “Post-emergence effect at 1.25 g/ha against ECHCG in %” value [4] was 100% and the “Post-emergence effect at 5 g/ha against ECHCG in %” value [4] was 100%. For the same compound, the “Post-emergence effect at 20 g/ha against ECHCG in %” value ([4]; 20 g/ha) was 100%, the “Post-emergence effect at 1.25 g/ha against VERPE in %” value (Veronica persica (VERPE)) was 100% and the “Post-emergence effect at 5 g/ha against VERPE in %” value (Veronica persica (VERPE); 5 g/ha) was 100%. The “Post-emergence effect at 20 g/ha against VERPE in %” value (Veronica persica (VERPE); 20 g/ha) was 100%, the “Post-emergence effect at 1.25 g/ha against MATIN in %” value ([5]; 1.25 g/ha) was 80% and the “Post-emergence effect at 5 g/ha against MATIN in %” value ([5]; 5 g/ha) was 100%. For the same compound, the “Post-emergence effect at 20 g/ha against MATIN in %” value ([5]; 20 g/ha) was 100%, the “Post-emergence effect at 1.25 g/ha against PHBPU in %” value [6] was 80% and the “Post-emergence effect at 5 g/ha against PHBPU in %” value ([6]; 5 g/ha) was 100%. For the same compound, the “Post-emergence effect at 20 g/ha against PHBPU in %” value ([6]; 20 g/ha) was 100%, the “Post-emergence effect at 1.25 g/ha against AMARE in %” value ([7]; 1.25 g/ha) was 100% and the “Post-emergence effect at 5 g/ha against AMARE in %” value ([7]; 5 g/ha) was 100%. The “Post-emergence effect at 20 g/ha against AMARE in %” value ([7]; 20 g/ha) was 100%, the “Post-emergence effect at 20 g/ha against LOLRI in %” value (Lolium rigidum (LOLRI)) was 80% and the “Post-emergence effect at 5 g/ha against ALOMY in %” value ([8]; 5 g/ha) was 90%. The “Post-emergence effect at 20 g/ha against ALOMY in %” value ([8]; 20 g/ha) was 100%, the “Post-emergence effect at 1.25 g/ha against VIOTR in %” value (Viola tricolor (VIOTR)) was 100% and the “Post-emergence effect at 5 g/ha against VIOTR in %” value (Viola tricolor (VIOTR)) was 100%. For the same compound, the “Post-emergence effect at 20 g/ha against VIOTR in %” value (Viola tricolor (VIOTR); 20 g/ha) was 100%, the “Post-emergence effect at 1.25 g/ha against SETVI in %” value (Setaria viridis (SETVI)) was 100% and the “Post-emergence effect at 5 g/ha against SETVI in %” value (Setaria viridis (SETVI); 5 g/ha) was 100%. For the same compound, the “Post-emergence effect at 20 g/ha against SETVI in %” value (Setaria viridis (SETVI); 20 g/ha) was 100%.

With `Cn1c(C(F)(F)F)cc(=O)n(-c2cc(Oc3ccccc3OCC(=O)OCC3CCCCC3)c(Cl)cc2F)c1=O` [I.7-14] the “Post-emergence effect at 1.25 g/ha against TRZAS in %” value ([1]; Triticum aestivum, in vivo) was 20%, the “herbicidal efficacy by comparison with a-27, a-29 or a generically encompassed structure (WO2002/098227)” value (harmful plants) was “distinctly improved herbicidal efficacy” and the pest or weed control at 5 g/ha ([2]; Fallopia convolvulus, 504 h, 5 g/ha, read-out: Post-emergence effect at 5 g/ha against POLCO in %) was 100%. For the same compound, the pest or weed control at 20 g/ha ([2]; Fallopia convolvulus, 504 h, 20 g/ha, read-out: Post-emergence effect at 20 g/ha against POLCO in %) was 100%, the “Post-emergence effect at 1.25 g/ha against ABUTH in %” value [3] was 100% and the pest or weed control at 5 g/ha ([3]; Abutilon theophrasti, 504 h, 5 g/ha, read-out: Post-emergence effect at 5 g/ha against ABUTH in %) was 100%. The pest or weed control at 20 g/ha ([3]; Abutilon theophrasti, 504 h, 20 g/ha, read-out: Post-emergence effect at 20 g/ha against ABUTH in %) was 100%, the “Post-emergence effect at 1.25 g/ha against ECHCG in %” value [4] was 90% and the “Post-emergence effect at 5 g/ha against ECHCG in %” value [4] was 100%. For the same compound, the pest or weed control at 20 g/ha ([4]; Echinochloa crus-galli, 504 h, 20 g/ha, read-out: Post-emergence effect at 20 g/ha against ECHCG in %) was 100%, the “Post-emergence effect at 1.25 g/ha against VERPE in %” value (Veronica persica (VERPE)) was 100% and the “VERPE (efficacy in %)” value (Veronica persica (VERPE); Table B4 comparison, application rate 1.25 g/ha) was 100%. The pest or weed control at 5 g/ha (Veronica persica (VERPE); Veronica persica, 504 h, 5 g/ha, read-out: Post-emergence effect at 5 g/ha against VERPE in %) was 100%, the pest or weed control at 20 g/ha (Veronica persica (VERPE); Veronica persica, 504 h, 20 g/ha, read-out: Post-emergence effect at 20 g/ha against VERPE in %) was 100% and the “Post-emergence effect at 1.25 g/ha against KCHSC in %” value (Bassia scoparia (KCHSC); 1.25 g/ha) was 100%. For the same compound, the “Post-emergence effect at 5 g/ha against KCHSC in %” value (Bassia scoparia (KCHSC); 5 g/ha) was 100%, the “Post-emergence effect at 20 g/ha against KCHSC in %” value (Bassia scoparia (KCHSC); 20 g/ha) was 100% and the pest or weed control at 20 g/ha ([5]; Tripleurospermum inodorum, 504 h, 20 g/ha, read-out: Post-emergence effect at 20 g/ha against MATIN in %) was 90%. The “Post-emergence effect at 1.25 g/ha against PHBPU in %” value [6] was 100%, the pest or weed control at 5 g/ha ([6]; Ipomoea purpurea, 504 h, 5 g/ha, read-out: Post-emergence effect at 5 g/ha against PHBPU in %) was 100% and the pest or weed control at 20 g/ha ([6]; Ipomoea purpurea, 504 h, 20 g/ha, read-out: Post-emergence effect at 20 g/ha against PHBPU in %) was 100%. For the same compound, the “Post-emergence effect at 5 g/ha against DIGSA in %” value ([9]; 5 g/ha) was 100%, the “Post-emergence effect at 20 g/ha against DIGSA in %” value ([9]; 20 g/ha) was 100% and the pest or weed control at 1.25 g/ha ([7]; Amaranthus retroflexus, 504 h, 1.25 g/ha, read-out: Post-emergence effect at 1.25 g/ha against AMARE in %) was 100%. It also gave a pest or weed control at 5 g/ha ([7]; Amaranthus retroflexus, 504 h, 5 g/ha, read-out: Post-emergence effect at 5 g/ha against AMARE in %) of 100%, a pest or weed control at 20 g/ha ([7]; Amaranthus retroflexus, 504 h, 20 g/ha, read-out: Post-emergence effect at 20 g/ha against AMARE in %) of 100% and a pest or weed control at 20 g/ha ([8]; Alopecurus myosuroides, 504 h, 20 g/ha, read-out: Post-emergence effect at 20 g/ha against ALOMY in %) of 100%. For the same compound, the “Post-emergence effect at 1.25 g/ha against VIOTR in %” value (Viola tricolor (VIOTR)) was 100%, the “Post-emergence effect at 5 g/ha against VIOTR in %” value (Viola tricolor (VIOTR)) was 100% and the pest or weed control at 20 g/ha (Viola tricolor (VIOTR); Viola tricolor, 504 h, 20 g/ha, read-out: Post-emergence effect at 20 g/ha against VIOTR in %) was 100%. For the same compound, the “Post-emergence effect at 1.25 g/ha against SETVI in %” value (Setaria viridis (SETVI)) was 100%, the pest or weed control at 5 g/ha (Setaria viridis (SETVI); Setaria viridis, 504 h, 5 g/ha, read-out: Post-emergence effect at 5 g/ha against SETVI in %) was 100% and the pest or weed control at 20 g/ha (Setaria viridis (SETVI); Setaria viridis, 504 h, 20 g/ha, read-out: Post-emergence effect at 20 g/ha against SETVI in %) was 100%. For the same compound, the “compatibility with crop plants by comparison with a-27, a-29 or a generically encompassed structure (WO2002/098227)” value (crop plants) was “distinctly improved compatibility”.
